Test results taken from ChEMBL document CHEMBL1201862, “PubChem BioAssay data set” (2004).
Activity calls are given as the source filed them. For most assays here, no stated cut-off is given here; in the data, actives have a measured EC50 and inactives only a lower limit.

Legend:
[1] = Trypanosoma cruzi growth suppression in host cells – NIH3T3 host cells, beta-gal luminescence, confirmation (AID 2044); assay type: functional, cell-based;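 further: intracellular parasites grown in NIH/3T3 mouse fibroblasts as host cells; luminescent beta-galactosidase reporter signal from transgenic T. cruzi replicating inside host cells; inhibitors lower the luminescence signal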
[2] = NIH3T3 cell viability loss – ATP luminescence, mouse fibroblasts, counter-screen, dose response (AID 2010); assay type: functional, cell-based;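 further: cells exposed to compound for about 90 hours before reading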
[3] = target: T1, Cytochrome P450 1A2 (Homo sapiens, UniProt P05177);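 further: PubChem cytochrome P450 panel assay, CYP1A2 panel member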
T1 sequence (P05177 whole entry): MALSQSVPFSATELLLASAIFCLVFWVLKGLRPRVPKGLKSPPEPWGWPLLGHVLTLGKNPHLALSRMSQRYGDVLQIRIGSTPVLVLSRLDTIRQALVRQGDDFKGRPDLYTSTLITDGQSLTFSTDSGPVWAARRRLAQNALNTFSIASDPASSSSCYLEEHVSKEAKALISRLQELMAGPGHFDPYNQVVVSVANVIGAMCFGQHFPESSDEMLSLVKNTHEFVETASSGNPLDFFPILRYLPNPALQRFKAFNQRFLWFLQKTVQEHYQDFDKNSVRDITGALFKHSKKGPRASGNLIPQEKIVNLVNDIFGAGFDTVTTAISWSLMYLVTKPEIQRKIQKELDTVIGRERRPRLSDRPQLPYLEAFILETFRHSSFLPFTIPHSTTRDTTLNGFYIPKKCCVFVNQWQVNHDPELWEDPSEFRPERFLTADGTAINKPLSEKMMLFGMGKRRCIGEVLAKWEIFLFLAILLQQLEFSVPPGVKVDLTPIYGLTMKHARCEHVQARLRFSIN

[4] = tested on: Streptococcus sp. 'group A'; assay: Streptococcus pyogenes SK(-)GAS viability under kanamycin – luminescence, BacTiterGlo, confirmation, counter-screen for streptokinase expression inhibitor project, dose response (AID 1900); assay type: functional, organism-based
[5] = target: T2, Streptokinase A (Streptococcus pyogenes serotype M1, UniProt P10520); assay: viability-normalized secreted streptokinase activity reduction – plasminogen activation absorbance, OD405, dose response (AID 1914); assay type: functional, Streptococcus pyogenes M1 GAS;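 further: secreted streptokinase activity via plasminogen activation per viability signal from cell pellet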
T2 sequence (P10520 whole entry): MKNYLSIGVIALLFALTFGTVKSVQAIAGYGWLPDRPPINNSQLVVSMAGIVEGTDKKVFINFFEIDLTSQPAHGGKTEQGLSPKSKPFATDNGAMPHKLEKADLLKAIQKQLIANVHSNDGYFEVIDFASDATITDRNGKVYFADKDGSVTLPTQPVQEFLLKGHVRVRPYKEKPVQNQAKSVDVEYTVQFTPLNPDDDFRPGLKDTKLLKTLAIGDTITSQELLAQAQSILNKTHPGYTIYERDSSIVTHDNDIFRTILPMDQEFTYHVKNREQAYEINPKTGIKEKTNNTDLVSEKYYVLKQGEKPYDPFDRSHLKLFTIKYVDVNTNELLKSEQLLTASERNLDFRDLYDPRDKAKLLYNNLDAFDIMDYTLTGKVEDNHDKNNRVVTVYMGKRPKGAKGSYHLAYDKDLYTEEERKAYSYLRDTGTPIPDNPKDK

[6] = tested on: Streptococcus; assay: GAS UMAA2166 growth inhibition – luminescence, BacTiterGlo, counter-screen for streptokinase expression inhibitor project, dose response (AID 1915); assay type: functional, organism-based;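 further: potency for reduction of bacterial viability or growth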
[7] = viability of uninfected HEp-2 cells – cell-based, HTS, cytotoxicity control for RSV inhibitor project, dose response (AID 2410); assay type: functional; settings: human respiratory syncytial virus
[8] = tested on: INS1; assay: INS-1E survival protection against cytokine death – cell-based, luminescence, retest, dose response (AID 449756); assay type: functional; settings: Rattus norvegicus;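 further: cell death triggered by IL-1 beta plus TNF-alpha plus IFN-gamma mixture; protective hits raise ATP signal compared with cytokine alone wells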

SMILES: CCOc1ccccc1OCCOCCN1CCN(Cc2ccccc2)CC1
- EC50 [1]: 0.633 µM (active)
- EC50 [2]: > 60 µM (not active)

SMILES: COc1ccc(C(=O)CC(Nc2ccc([N+](=O)[O-])cc2)c2ccc(Cl)cc2)cc1 (stereo unspecified)
- EC50 [1]: 2.27 µM (active)
- EC50 [2]: > 60 µM (not active)

SMILES: Cc1ccc(C2NC(c3ccc(C)cc3)C(C)C(=NO)C2C)cc1 (stereo unspecified)
- AC50 [3]: 15.8 µM (inconclusive)

SMILES: CCOC(=O)c1[nH]c(C)c(C(=O)OCC(=O)N2c3ccccc3CC2C)c1C (stereo unspecified)
- AC50 [3]: 12.6 µM (inconclusive)

SMILES: O=C(C1=C(O)C(=O)N(Cc2ccco2)C1c1cccc(Cl)c1)c1ccco1 (stereo unspecified)
- EC50 [4]: 22.7 µM (active)
- EC50 [5]: > 150 µM (not active)
- EC50 [6]: > 150 µM (not active)

SMILES: CCCNC(=O)CCc1c(C)nc2c(c(C)nn2-c2ccc(C)cc2)c1C
- EC50 [1]: 1.8 µM (active)
- EC50 [2]: > 60 µM (not active)

SMILES: COc1ccccc1NC(=O)Nc1nc(CC(=O)N2CCN(c3ccccc3OC)CC2)cs1
- CC50 [7]: 15.2 µM (active)

SMILES: CC(=O)Nc1ccc(S(=O)(=O)N2c3ccccc3NC(=O)CC2C)c(Cl)c1 (stereo unspecified)
- AC50 [8]: > 260 µM (inactive)

SMILES: CC1CCN(C(=O)CCNS(=O)(=O)c2ccc(Br)cc2)CC1
- AC50 [8]: > 260 µM (inactive)

SMILES: Cc1csc2ncnc(N3CCN(S(=O)(=O)c4cccc(C(F)(F)F)c4)CC3)c12
- AC50 [8]: 3.86 µM (active)

SMILES: Clc1cccc(-c2cc3nc4c(c(N5CCN(c6cnccn6)CC5)n3n2)CCCC4)c1
- CC50 [7]: 35.2 µM (active)

SMILES: CC(C)c1nc(-c2ccccc2)c(-c2ccccc2)[nH]1
- AC50 [8]: 7.08 µM (active)

SMILES: O=C(CCN1CCN(C/C=C/c2ccccc2)CC1)Nc1cccc(F)c1
- EC50 [1]: 0.383 µM (active)
- EC50 [2]: 21.9 µM (active)

SMILES: COc1ccc2c(c1)c(CC(=O)NCc1cc([N+](=O)[O-])ccc1O)c(C)n2C(=O)c1ccc(Cl)cc1
- EC50 [4]: 19.1 µM (active)
- EC50 [5]: 20.2 µM (active)
- EC50 [6]: > 150 µM (not active)

SMILES: CCOc1ccccc1CN1CCCC(CNC(=O)Cc2ccc(OC)cc2)C1 (stereo unspecified)
- EC50 [1]: 1.33 µM (active)
- EC50 [2]: > 60 µM (not active)

SMILES: CCCCc1nc2cc(C(=O)N3CCC(OCCOC)CC3)ccc2o1
- EC50 [4]: > 150 µM (not active)
- EC50 [5]: > 150 µM (not active)
- EC50 [6]: > 150 µM (not active)

SMILES: CCCCN(CC)CCNC(=O)c1cn(-c2ccc(Cl)cc2)c(=O)c2ccccc12
- EC50 [1]: 0.896 µM (active)
- EC50 [2]: > 60 µM (inconclusive)

SMILES: Nc1nc(Nc2ccccc2)nc2c1ncn2[C@@H]1O[C@@H](CO)[C@H](O)[C@H]1O
- AC50 [3]: 39.8 µM (inconclusive)

SMILES: CCCCCn1c(=O)c(C(=O)Nc2ncccc2C)c(O)c2ccccc21
- AC50 [8]: 10.4 µM (active)

SMILES: COc1ccc(N2CCN(C(CNS(=O)(=O)c3cc(F)ccc3F)c3cccnc3)CC2)cc1 (stereo unspecified)
- EC50 [1]: 0.206 µM (active)
- EC50 [2]: > 60 µM (not active)

SMILES: CCOC(=O)c1ccc(Oc2c[nH]nc2-c2ccc(OCC(=O)NN)cc2O)cc1
- EC50 [4]: > 150 µM (not active)
- EC50 [5]: > 150 µM (not active)
- EC50 [6]: > 150 µM (not active)

SMILES: COc1cccc(C(=O)Nc2cccc(-c3nnc(-c4ccccc4)o3)c2)c1
- EC50 [4]: 23.2 µM (active)
- EC50 [5]: > 150 µM (not active)
- EC50 [6]: 57.9 µM (active)

SMILES: CCOC(=O)c1cnc2ccc(OCC)cc2c1N1CCN(c2ccccc2)CC1
- AC50 [8]: 14.9 µM (active)

SMILES: N#CCCn1c(=O)c(-c2ccc(Cl)cc2)nc2cnc(Oc3ccccc3)nc21
- AC50 [3]: 0.501 µM (inconclusive)

SMILES: Cc1cc(C)nc(SCC(=O)NC2=NN=C(c3ccc(Br)cc3)CS2)n1
- EC50 [4]: 2.6 µM (active)
- EC50 [5]: > 150 µM (not active)
- EC50 [1]: 1.65 µM (active)
- EC50 [2]: > 60 µM (inconclusive)
- EC50 [6]: 3.62 µM (active)
- AC50 [8]: 4.78 µM (active)

SMILES: COC(=O)[C@@]1(Cc2ccc(OC)cc2)[C@H]2c3cc(C(=O)N(C)C)[nH]c3C[C@H]2CN1C(=O)c1ccccc1
- AC50 [3]: 20 µM (inconclusive)

SMILES: COCCNC(=O)COc1ccc(Oc2ccccc2)cc1
- AC50 [3]: 25.1 µM (inconclusive)

SMILES: COc1ccc(CCn2c(-c3cc([N+](=O)[O-])cc([N+](=O)[O-])c3)nc3nc4ccccc4nc32)cc1OC
- EC50 [1]: 0.105 µM (active)
- EC50 [2]: > 60 µM (not active)

SMILES: CCOCC(=O)Nc1ccc([N+](=O)[O-])cc1OC
- CC50 [7]: > 50 µM (active)

SMILES: Cc1onc(-c2c(F)cccc2Cl)c1C(=O)NCc1ccc2c(c1)OCO2
- EC50 [4]: > 150 µM (not active)
- EC50 [5]: > 150 µM (not active)
- EC50 [6]: > 150 µM (not active)

SMILES: O=C1CCC(/C=C/c2ccccc2)=NN1Cc1ccccc1Cl
- CC50 [7]: 27 µM (active)

SMILES: Cc1cccc2c1-c1sc(C(=O)N3CCc4ccccc4C3)cc1CO2
- CC50 [7]: 11.6 µM (active)

SMILES: CCCc1cc(COC)c(C#N)c(O)n1
- AC50 [3]: 6.31 µM (inconclusive)

SMILES: CCCCOc1ccc(/C=C/C2=CC(C)(C)NC(S)=N2)cc1OCC
- EC50 [1]: 0.774 µM (active)
- EC50 [2]: > 60 µM (inconclusive)

SMILES: COc1cccc(C(=O)OC2CCN(C)CC2)c1
- EC50 [1]: 0.233 µM (active)
- EC50 [2]: > 30 µM (not active)

SMILES: N#Cc1cccc(-c2nc3cnc(N4CCOCC4)nc3n(C[C@H]3CCCO3)c2=O)c1
- AC50 [3]: 0.794 µM (inconclusive)

SMILES: CCCN=C(S)N1CCN(c2nc(C)nc3sc4c(c23)CCCC4)CC1
- CC50 [7]: 11.2 µM (active)

SMILES: O=C(Nc1ccccc1N1CCCCC1)c1cc(S(=O)(=O)N2CCOCC2)ccc1Cl
- CC50 [7]: 21.7 µM (active)

SMILES: COc1cccc(C(=O)Nc2nc(-c3ccccc3)c(-c3ccccc3)o2)c1
- EC50 [4]: 1.44 µM (active)
- EC50 [6]: 5.62 µM (active)

SMILES: COc1cccc(N/C(C)=C/C(=O)c2ccc(Br)cc2)c1
- CC50 [7]: 25.5 µM (active)

SMILES: CCOC(=O)C1CCN(C(=O)C(=O)c2cn(CC(=O)N3CCCCCC3)c3ccccc23)CC1
- EC50 [1]: 0.763 µM (active)
- EC50 [2]: > 60 µM (not active)

SMILES: CN(Cc1ccco1)c1ncncc1-c1cccc(C#N)c1
- AC50 [3]: 12.6 µM (inconclusive)

SMILES: CCn1c(=O)c(C(=O)NNC(=O)c2ccc(Cl)cc2Cl)c(O)c2ccccc21
- EC50 [4]: 3.62 µM (active)
- EC50 [6]: 7.58 µM (active)

SMILES: COC(=O)C1=C(c2ccccc2OCc2ccccc2)C[C@@H]2CC[C@H]1N2C(=O)NCc1ccc([N+](=O)[O-])cc1
- CC50 [7]: 37.6 µM (active)

SMILES: COc1cc(/C(C)=C/c2ccccc2)c2c(c1)oc1ccccc12
- EC50 [4]: 2.3 µM (active)
- EC50 [5]: 20.9 µM (active)
- EC50 [6]: > 150 µM (not active)

SMILES: CC(C)(C)c1ccc(OCC(=O)N2CCN(c3ncccn3)CC2)cc1
- EC50 [4]: > 150 µM (not active)
- EC50 [5]: > 150 µM (not active)
- EC50 [6]: > 150 µM (not active)

SMILES: COc1ccc(C(=O)NC(=S)NNC(=O)COc2ccccc2)cc1
- EC50 [4]: 2.23 µM (active)
- EC50 [6]: 3.64 µM (active)

SMILES: Fc1cccc(Cc2noc(CN3CCCN(C4Cc5ccccc5C4)CC3)n2)c1
- EC50 [1]: 0.57 µM (active)
- EC50 [2]: 45.2 µM (active)

SMILES: CCCC[C@@H]1C[C@H]1C(NC(=O)c1ccc(C(F)(F)F)cc1)c1ccc(C(=O)OC)cc1 (stereo partly specified)
- AC50 [3]: 15.8 µM (inconclusive)

SMILES: COCCn1c(=O)c(-c2cn(C)c3ccccc23)nc2cnc(Oc3ccccc3)nc21
- AC50 [3]: 10 µM (inconclusive)

SMILES: Cc1ccc(-c2cccc(C(=O)NCCc3ccccc3)n2)c2ccccc12
- CC50 [7]: 16.2 µM (active)

SMILES: N=C(N)C(/N=N\c1ccccc1)C(=N)N (stereo unspecified)
- AC50 [3]: 5.01 µM (inconclusive)

SMILES: O=C1N=C(N/N=C/c2ccccc2O)SC1Cc1ccc(F)cc1 (stereo unspecified)
- EC50 [4]: 16 µM (active)
- EC50 [5]: > 150 µM (not active)
- EC50 [6]: > 150 µM (not active)
- AC50 [8]: 4.67 µM (active)

SMILES: COc1ccc(/N=C2/SCC(c3ccc([N+](=O)[O-])cc3)=NN2CCO)cc1
- CC50 [7]: 15.8 µM (active)

SMILES: NC(=O)N/N=C(/CCCCCC/C(=N\NC(N)=O)c1ccccc1)c1ccccc1
- EC50 [4]: 26.6 µM (active)
- EC50 [5]: > 150 µM (not active)
- EC50 [6]: > 150 µM (not active)

SMILES: C=CCNC(=S)N/N=C/c1ccc(OCc2ccccc2Cl)cc1
- EC50 [1]: 1.65 µM (active)
- EC50 [2]: > 30 µM (not active)

SMILES: Cc1ccc(-n2c(-c3ccccc3)cc(/C=N/NC(=O)CC#N)c2-c2ccccc2)cc1
- EC50 [1]: 1.72 µM (active)
- EC50 [2]: > 60 µM (not active)

SMILES: O=C1N(c2ccccc2)c2ccccc2C1(Cc1ccncc1)Cc1ccncc1 [LINOPIRDINE]
- AC50 [3]: 31.6 µM (inconclusive)
